The record followed here is CN108947977A, “3r-吲哚甲基-6r-酰胺侧链氨基酸修饰的哌嗪-2,5-二酮，其合成，活性和应用” (Capital Medical University, priority 2017, dated 2018).

Each structure is given as a SMILES string.

One assay deals with S180. Put plainly: Anti-tumour growth activity in S180 tumour-bearing mice (tumour weight). Type of assay: in vivo, ICR小鼠. The conditions noted are these: oral, 0.5μmol/kg/天; for Inhibition of tumour growth (result in words): 12 days, S180 mice; for Anti-tumour growth activity compared with compound 8 (5μmol/kg/天): compound 8 dose 10-fold higher.
In the next assay the test system is Lewis小鼠肺癌细胞(LLC). The experiment in a line: Anti-metastasis activity: Lewis lung carcinoma (LLC) implanted in C57BL/6 mice, lung metastasis nodules counted. Type of assay: in vivo, C57BL/6小鼠. The conditions noted are these: oral, 0.5μmol/kg/天; for Inhibition of tumour lung metastasis (result in words): 12 days, LLC-bearing C57BL/6 mice; for Anti-metastasis activity compared with RGDS (20μmol/kg/天) and compound 8 (5μmol/kg/天): RGDS dose 40-fold higher, compound 8 dose 10-fold higher.

The subject of another assay is 二甲苯引起的小鼠耳肿胀. The experiment in a line: Anti-inflammatory activity: xylene-induced mouse ear swelling. The conditions noted are these: oral, 0.5μmol/kg; for Inhibition of xylene-induced mouse ear swelling (result in words): xylene 30 min after dosing, ears taken 2 h later; for Anti-inflammatory activity compared with compound 8 (5μmol/kg): compound 8 dose 10-fold higher. It is filed as in vivo, ICR小鼠.

For the molecule `NC(=O)CC[C@H](N)C(=O)NCCCCCC(=O)NCCCC[C@H]1NC(=O)[C@@H](Cc2c[nH]c3ccccc23)NC1=O` [化合物6a, (3R,6R)-3-(Gln-氨基正己酰基氨基正丁基)-6-(吲哚-3-甲基)-哌嗪-2,5-二酮], in the assay with S180, the “Inhibition of tumour growth (result in words)” value is “有效地抑制肿瘤生长” and the “Anti-tumour growth activity compared with compound 8 (5μmol/kg/天)” value is recorded as “没有显著性差异”. In the assay with Lewis小鼠肺癌细胞(LLC), the “Inhibition of tumour lung metastasis (result in words)” value is on record as “有效地抑制肿瘤肺转移”; the “Anti-metastasis activity compared with RGDS (20μmol/kg/天) and compound 8 (5μmol/kg/天)” value was “没有显著性差异”. Besides, in the assay with 二甲苯引起的小鼠耳肿胀, the “Inhibition of xylene-induced mouse ear swelling (result in words)” value is on record as “有效地抑制二甲苯引起的小鼠耳肿胀” and the “Anti-inflammatory activity compared with compound 8 (5μmol/kg)” value was “没有显著性差异”.
As to `NC(=O)C[C@H](N)C(=O)NCCCCCC(=O)NCCCC[C@H]1NC(=O)[C@@H](Cc2c[nH]c3ccccc23)NC1=O` [化合物6b, (3R,6R)-3-(Asn-氨基正己酰基氨基正丁基)-6-(吲哚-3-甲基)-哌嗪-2,5-二酮], in the assay with S180, the “Inhibition of tumour growth (result in words)” value was “有效地抑制肿瘤生长” and the “Anti-tumour growth activity compared with compound 8 (5μmol/kg/天)” value is on record as “没有显著性差异”. In the assay with Lewis小鼠肺癌细胞(LLC), the “Inhibition of tumour lung metastasis (result in words)” value is given as “有效地抑制肿瘤肺转移”; the “Anti-metastasis activity compared with RGDS (20μmol/kg/天) and compound 8 (5μmol/kg/天)” value is listed as “没有显著性差异”. Moreover, in the assay with 二甲苯引起的小鼠耳肿胀, the “Inhibition of xylene-induced mouse ear swelling (result in words)” value is on record as “有效地抑制二甲苯引起的小鼠耳肿胀” and the “Anti-inflammatory activity compared with compound 8 (5μmol/kg)” value is “没有显著性差异”.
